Results taken from patent US11952330B2, “Antibiotic ammonium compounds and methods for the treatment of bacterial infections” (priority 2019, dated 2024).
Read-outs that look alike come from different tables or passages of the source.

Tests used:
A. baumannii [1] = assay: MIC by broth dilution, A. baumannii; format: cell-based; conditions: Acinetobacter baumannii, Mueller-Hinton broth
Method in brief: (§1)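 Broth dilution in Mueller-Hinton broth with 2-fold compound steps over 1–256 μg/mL (final) and 5×10^5 CFU/mL inoculum, incubated overnight at 37 °C. The MIC is the lowest concentration without visible turbidity, from at least biological duplicates of technical triplicates. A parallel series was supplemented with 5% (final) human plasma.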

human red blood cell = assay: In vitro hemolysis assay; format: cell-based; conditions: for % hemolysis at 16 μg/ml / % hemolysis at 32 μg/ml: human RBCs, 37° C., 1 hour; for hemolysis as compared to otilonium bromide (11), in words: 16 and 32 μg/mL; for reduction in hemolysis as compared to otilonium bromide (11): at 32 μg/mL
Experimental: The hemolytic potential of ammonium compounds were assessed in vitro. A human red blood cell solution (RBC) was prepared by washing 400 μL of fresh RBCs twice with 7 mL of 1×PBS (pH 7.4) by centrifugation at 4° C., 2500 rpm for 10 minutes. The precipitates were then resuspended in 4 mL of 1×PBS. Hemolysis testing was performed by mixing 500 μL of freshly prepared test compound solutions at a final concentration of both 16 μg/mL and 32 μg/mL in 1×PBS with 400 μL of the washed human RBCs. Two control samples were prepared by separately mixing 400 μL of washed RBCs with 500 μL of 1×PBS (negative control) and 1% Triton X-100 (w/v). After incubation in a water bath at 37° C. for 1 hour, the samples were centrifuged at 2500 rpm for 10 minutes. 300 μL of the supernatant were collected for measurement in a 96-well plate. The release of hemoglobin was assessed by measuring the absorbance of the samples at 540 nm using 1×PBS as the blank. Hemolysis percent was calculated using Equation 1: […]

S. aureus = assay: MIC by broth dilution, S. aureus; format: cell-based; conditions: for MIC: Staphylococcus aureus, Mueller-Hinton broth; for selectivity for Gram positive microbes over Gram negative microbes, in words: S. aureus vs A. baumannii
Method in brief: as §1

A. baumannii [2] = assay: MIC by broth dilution in presence of 5% human plasma (esterases), A. baumannii; format: cell-based; conditions: for Δ MIC A. baumannii + human plasma: broth supplemented with 5% human plasma (esterases) vs no plasma
Experimental: The antibacterial efficacy of ammonium compounds in the presence of human plasma was assessed. Minimum inhibitory concentrations (MICs) were determined by broth dilution method. Dilutions of each compound, ranging from 1 μg/mL to 256 μg/mL (final concentrations) were prepared in Mueller-Hinton broth. For the plasma containing samples, compound dilutions were made in Mueller-Hinton broth and supplemented with 5% (final %) human plasma (esterases). Compound dilutions were added to wells of a 96-well plate, with the concentration of the compound increasing 2-fold by row. Each well contained 5×10^5 CFU/mL of target bacterium in a total volume of 100 μL. Plates were incubated overnight at 37° C. The following day, plates were evaluated for a visual change in growth to determine the MIC. The concentration value corresponding to the first row that no longer had visible bacterial growth, as evaluated by turbidity in the wells, was recorded as the MIC. MIC values were representative of at least biological duplicates, each made up of technical triplicates.

[3] = tested on: enterotoxigenic Escherichia coli (ETEC); assay: Mouse assay, oral inoculation with ETEC, viable bacteria in intestines; format: in vivo; conditions: neonate CD-1 mice, 10^7 CFU oral, compound co-administered at 1 mg/kg, intestines harvested after 4 hours
Experimental: (§2) Mouse assays were used to evaluate the in vivo activity of compound 95. Male and female neonate CD-1 mice were orally innoculated with 10^7 colony forming units of enterotoxigenic Escherichia coli (ETEC) (FIG. 2A) or vancomycin-resistant enterococcus (VRE) (FIG. 2B) and co-administered compound 95 at 1 mg/kg. Intestines were harvested after 4 hours and plated to determine viable bacteria.

[4] = tested on: vancomycin-resistant enterococcus (VRE); assay: Mouse assay, oral inoculation with VRE, viable bacteria in intestines; format: in vivo; conditions: neonate CD-1 mice, 10^7 CFU oral, compound co-administered at 1 mg/kg, intestines harvested after 4 hours
Experimental: as §2

[5] = no plasma, Table 2, read-out: MIC (μg/ml) A. baumannii
[6] = overnight 37° C., Table 1, read-out: MIC (μg/mL) A. baumannii
[7] = no plasma, Table 2, read-out: MIC (μg/ml) S. aureus
[8] = overnight 37° C., Table 1, read-out: MIC (μg/mL) S. aureus

SMILES: CCCCCCCCOc1ccccc1C(=O)Nc1ccc(C(=O)OCC[N+](C)(C)C)cc1.[Br-] [Compound 11, N,N,N-Trimethyl-2-((4-(2-(octyloxy)benzamido)benzoyl)oxy)ethan-1-aminium bromide]
- MIC (A. baumannii [1]; [5]): 3 to 30 µg/mL
- MIC (A. baumannii [1]; [6]): 3 to 30 µg/mL
- % hemolysis at 16 μg/ml (human red blood cell): 7%
- % hemolysis at 32 μg/ml (human red blood cell): 92%
- MIC (S. aureus; [7]): 3 to 30 µg/mL
- MIC (S. aureus; [8]): 3 to 30 µg/mL
- Δ MIC A. baumannii + human plasma (A. baumannii [2]): 8X

SMILES: CCCCCCCCOc1cccc(OCCCCCCCC)c1C(=O)Nc1ccc(C(=O)OCC[N+](C)(CC)CC)cc1.[Br-] [Compound 17, 2-((4-(2,6-Bis(octyloxy)benzamido)benzoyl)oxy)-N,N-diethyl-N-methylethan-1-aminium bromide]
- MIC (A. baumannii [1]; [5]): > 30 µg/mL
- MIC (A. baumannii [1]; [6]): > 30 µg/mL
- % hemolysis at 16 μg/ml (human red blood cell): 59%
- % hemolysis at 32 μg/ml (human red blood cell): 90%
- hemolysis as compared to otilonium bromide (11), in words (human red blood cell): reduced hemolysis as compared to otilonium bromide
- antimicrobial activity against Gram positive S. aureus relative to otilonium bromide, in words (S. aureus): comparable or better than the activity of otilonium bromide
- selectivity for Gram positive microbes over Gram negative microbes, in words (S. aureus): virtually complete selectivity for Gram positive microbes
- MIC (S. aureus; [7]): < 3 µg/mL
- MIC (S. aureus; [8]): 3 to 30 µg/mL
- stability in the presence of enzymes that are found in the gut, compared with otilonium bromide (11), in words (A. baumannii [2]; 5% human plasma): better stability than otilonium bromide

SMILES: CCCCCCOc1ccccc1C(=O)Nc1ccc(C(=O)OCC[N+](CC)(CC)CCCCC)cc1.[Br-] [Compound 68, N,N-Diethyl-N-(2-((4-(2-(hexyloxy)benzamido)benzoyl)oxy)ethyl)pentan-1-aminium bromide]
- MIC (A. baumannii [1]; [5]): 3 to 30 µg/mL
- MIC (A. baumannii [1]; [6]): 3 to 30 µg/mL
- % hemolysis at 16 μg/ml (human red blood cell): 2%
- % hemolysis at 32 μg/ml (human red blood cell): 5%
- hemolysis as compared to otilonium bromide (11), in words (human red blood cell): reduced hemolysis as compared to otilonium bromide
- reduction in hemolysis as compared to otilonium bromide (11) (human red blood cell): 94%
- antimicrobial activity against Gram positive S. aureus relative to otilonium bromide, in words (S. aureus): comparable or better than the activity of otilonium bromide
- selectivity for Gram positive microbes over Gram negative microbes, in words (S. aureus): improved selective for Gram positive microbes over Gram negative microbes
- MIC (S. aureus; [7]): < 3 µg/mL
- MIC (S. aureus; [8]): < 3 µg/mL
- stability in the presence of enzymes that are found in the gut, compared with otilonium bromide (11), in words (A. baumannii [2]; 5% human plasma): better stability than otilonium bromide
- Δ MIC A. baumannii + human plasma (A. baumannii [2]): 8X

SMILES: CCCCCCCOc1cc(F)ccc1C(=O)Nc1ccc(S(=O)(=O)NCC[N+](CC)(CC)CCCC)cc1.[Br-] [Compound 95, N,N-Diethyl-N-(2-((4-(4-fluoro-2-(heptyloxy)benzamido)phenyl)sulfonamido)-ethyl)butan-1-aminium bromide]
- MIC (A. baumannii [1]; [5]): 3 to 30 µg/mL
- MIC (A. baumannii [1]; [6]): 3 to 30 µg/mL
- viability and colonization of ETEC in intestines [3]: significantly decreased viablity and colonization
- % hemolysis at 16 μg/ml (human red blood cell): 3%
- % hemolysis at 32 μg/ml (human red blood cell): 14%
- hemolysis as compared to otilonium bromide (11), in words (human red blood cell): reduced hemolysis as compared to otilonium bromide
- reduction in hemolysis as compared to otilonium bromide (11) (human red blood cell): 85%
- antimicrobial activity against Gram positive S. aureus relative to otilonium bromide, in words (S. aureus): comparable or better than the activity of otilonium bromide
- MIC (S. aureus; [7]): 3 to 30 µg/mL
- MIC (S. aureus; [8]): 3 to 30 µg/mL
- stability in the presence of enzymes that are found in the gut, compared with otilonium bromide (11), in words (A. baumannii [2]; 5% human plasma): better stability than otilonium bromide
- increase in stability (A. baumannii [2]; 5% human plasma, vs otilonium bromide (11)): four- to eight-fold
- Δ MIC A. baumannii + human plasma (A. baumannii [2]): 2X
- viability and colonization of VRE in intestines [4]: significantly decreased viablity and colonization

SMILES: CC[N+](C)(CC)CCOC(=O)c1ccc(NC(=O)c2ccccc2OCCCCC(C)C)cc1.[Br-] [Compound 97, N,N-Diethyl-N-methyl-2-((4-(2-((5-methylhexyl)oxy)benzamido)benzoyl)oxy)-ethan-1-aminium bromide]
- MIC (A. baumannii [1]; [6]): > 30 µg/mL
- MIC (S. aureus; [8]): 3 to 30 µg/mL

SMILES: CC[N+](C)(CC)CCOC(=O)c1ccc(NC(=O)c2ccccc2OC2CCC(C)CC2)cc1.[Br-] (centres unmarked) [Compound 98, N,N-Diethyl-N-methyl-2-((4-(2-(((1s,4s)-4-methylcyclohexyl)oxy)benzamido)-benzoyl)oxy)ethan-1-aminium bromide]
- MIC (A. baumannii [1]; [6]): > 30 µg/mL
- MIC (S. aureus; [8]): > 30 µg/mL
